{
  "source": "PubChem BioAssay (NCI)",
  "assay_in_all_cases": "NCI anticancer screen, dose series, 48 h",
  "key": {"U251 CNS": {"tested_on": "U251 CNS"}, "NCI-H23 lung": {"tested_on": "NCI-H23 lung"}, "ACHN renal": {"tested_on": "ACHN renal"}, "HT29 colon": {"tested_on": "HT29 colon"}, "OVCAR-5 ovarian": {"tested_on": "OVCAR-5 ovarian"}, "PC-3 prostate": {"tested_on": "PC-3 prostate"}, "OVCAR-8 ovarian": {"tested_on": "OVCAR-8 ovarian"}, "NCI-H522 lung": {"tested_on": "NCI-H522 lung"}, "SNB-19 CNS": {"tested_on": "SNB-19 CNS"}, "TK-10 renal": {"tested_on": "TK-10 renal"}, "COLO 205 colon": {"tested_on": "COLO 205 colon"}, "SK-MEL-28 melanoma": {"tested_on": "SK-MEL-28 melanoma"}, "SK-OV-3 ovarian": {"tested_on": "SK-OV-3 ovarian"}, "OVCAR-3 ovarian": {"tested_on": "OVCAR-3 ovarian"}, "SK-MEL-2 melanoma": {"tested_on": "SK-MEL-2 melanoma"}, "NCI/ADR-RES ovarian": {"tested_on": "NCI/ADR-RES ovarian"}, "OVCAR-4 ovarian": {"tested_on": "OVCAR-4 ovarian"}, "CCRF-CEM leukemia": {"tested_on": "CCRF-CEM leukemia"}, "MOLT-4 leukemia": {"tested_on": "MOLT-4 leukemia"}, "EKVX NSCLC": {"tested_on": "EKVX NSCLC"}, "SW-620 colon": {"tested_on": "SW-620 colon"}, "HS 578T breast": {"tested_on": "HS 578T breast"}, "KM12 colon": {"tested_on": "KM12 colon"}, "HCC-2998 colon": {"tested_on": "HCC-2998 colon"}, "HCT-116 colon": {"tested_on": "HCT-116 colon"}, "BT-549 breast": {"tested_on": "BT-549 breast"}, "NCI-H226 lung": {"tested_on": "NCI-H226 lung"}, "A549 NSCLC": {"tested_on": "A549 NSCLC"}, "MDA-MB-231 breast": {"tested_on": "MDA-MB-231 breast"}, "UACC-62 melanoma": {"tested_on": "UACC-62 melanoma"}, "MALME-3M melanoma": {"tested_on": "MALME-3M melanoma"}, "UACC-257 melanoma": {"tested_on": "UACC-257 melanoma"}, "HOP-92 NSCLC": {"tested_on": "HOP-92 NSCLC"}, "HL-60(TB) leukemia": {"tested_on": "HL-60(TB) leukemia"}, "SN12C renal": {"tested_on": "SN12C renal"}, "UO-31 renal": {"tested_on": "UO-31 renal"}, "T-47D breast": {"tested_on": "T-47D breast"}, "A498 renal": {"tested_on": "A498 renal"}, "SK-MEL-5 melanoma": {"tested_on": "SK-MEL-5 melanoma"}, "SF-539 CNS": {"tested_on": "SF-539 CNS"}, "NCI-H460 lung": {"tested_on": "NCI-H460 lung"}, "K-562 leukemia": {"tested_on": "K-562 leukemia"}, "M14 melanoma": {"tested_on": "M14 melanoma"}, "786-0 renal": {"tested_on": "786-0 renal"}, "HCT-15 colon": {"tested_on": "HCT-15 colon"}, "MDA-MB-435": {"tested_on": "MDA-MB-435"}, "SF-295 CNS": {"tested_on": "SF-295 CNS"}, "SF-268 CNS": {"tested_on": "SF-268 CNS"}, "RXF 393 renal": {"tested_on": "RXF 393 renal"}, "IGROV1 ovarian": {"tested_on": "IGROV1 ovarian"}, "DU-145 prostate": {"tested_on": "DU-145 prostate"}, "CAKI-1 renal": {"tested_on": "CAKI-1 renal"}, "MCF7 breast": {"tested_on": "MCF7 breast"}, "LOX IMVI melanoma": {"tested_on": "LOX IMVI melanoma"}},
  "note": "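In this assay, cells in 96-well plates receive the compound at five concentrations for 48 hours. Endpoints are linearly interpolated between the surrounding concentrations. Definition used: TGI = concentration required for complete inhibition of growth.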",
  "data": [
    {"smiles": "N#CC(NCCc1ccccc1)c1ccc(C(C#N)NCCc2ccccc2)cc1", "note": "(centres undefined)", "values": [
      {"measurement": "TGI", "setting": "U251 CNS", "value": "> 100", "unit": "µM"},
      {"measurement": "TGI", "setting": "NCI-H23 lung", "value": "> 100", "unit": "µM"},
      {"measurement": "TGI", "setting": "ACHN renal", "value": "> 100", "unit": "µM"},
      {"measurement": "TGI", "setting": "HT29 colon", "value": "> 100", "unit": "µM"},
      {"measurement": "TGI", "setting": "OVCAR-5 ovarian", "value": "> 100", "unit": "µM"},
      {"measurement": "TGI", "setting": "PC-3 prostate", "value": "> 100", "unit": "µM"},
      {"measurement": "TGI", "setting": "OVCAR-8 ovarian", "value": "> 100", "unit": "µM"},
      {"measurement": "TGI", "setting": "NCI-H522 lung", "value": "> 100", "unit": "µM"},
      {"measurement": "TGI", "setting": "SNB-19 CNS", "value": "> 100", "unit": "µM"},
      {"measurement": "TGI", "setting": "TK-10 renal", "value": "> 100", "unit": "µM"},
      {"measurement": "TGI", "setting": "COLO 205 colon", "value": "> 100", "unit": "µM"},
      {"measurement": "TGI", "setting": "SK-MEL-28 melanoma", "value": "> 100", "unit": "µM"},
      {"measurement": "TGI", "setting": "SK-OV-3 ovarian", "value": "> 100", "unit": "µM"},
      {"measurement": "TGI", "setting": "OVCAR-3 ovarian", "value": "> 100", "unit": "µM"},
      {"measurement": "TGI", "setting": "SK-MEL-2 melanoma", "value": "> 100", "unit": "µM"},
      {"measurement": "TGI", "setting": "NCI/ADR-RES ovarian", "value": 57.5, "unit": "µM"},
      {"measurement": "TGI", "setting": "OVCAR-4 ovarian", "value": "> 100", "unit": "µM"},
      {"measurement": "TGI", "setting": "CCRF-CEM leukemia", "value": 65.7, "unit": "µM"},
      {"measurement": "TGI", "setting": "MOLT-4 leukemia", "value": "> 100", "unit": "µM"},
      {"measurement": "TGI", "setting": "EKVX NSCLC", "value": "> 100", "unit": "µM"},
      {"measurement": "TGI", "setting": "SW-620 colon", "value": "> 100", "unit": "µM"},
      {"measurement": "TGI", "setting": "HS 578T breast", "value": "> 100", "unit": "µM"},
      {"measurement": "TGI", "setting": "KM12 colon", "value": "> 100", "unit": "µM"},
      {"measurement": "TGI", "setting": "HCC-2998 colon", "value": "> 100", "unit": "µM"},
      {"measurement": "TGI", "setting": "HCT-116 colon", "value": "> 100", "unit": "µM"},
      {"measurement": "TGI", "setting": "BT-549 breast", "value": 56.1, "unit": "µM"},
      {"measurement": "TGI", "setting": "NCI-H226 lung", "value": "> 100", "unit": "µM"},
      {"measurement": "TGI", "setting": "A549 NSCLC", "value": "> 100", "unit": "µM"},
      {"measurement": "TGI", "setting": "MDA-MB-231 breast", "value": "> 100", "unit": "µM"},
      {"measurement": "TGI", "setting": "UACC-62 melanoma", "value": "> 100", "unit": "µM"},
      {"measurement": "TGI", "setting": "MALME-3M melanoma", "value": "> 100", "unit": "µM"},
      {"measurement": "TGI", "setting": "UACC-257 melanoma", "value": "> 100", "unit": "µM"},
      {"measurement": "TGI", "setting": "HOP-92 NSCLC", "value": "> 100", "unit": "µM"},
      {"measurement": "TGI", "setting": "HL-60(TB) leukemia", "value": 40.8, "unit": "µM"},
      {"measurement": "TGI", "setting": "SN12C renal", "value": "> 100", "unit": "µM"},
      {"measurement": "TGI", "setting": "UO-31 renal", "value": "> 100", "unit": "µM"},
      {"measurement": "TGI", "setting": "T-47D breast", "value": "> 100", "unit": "µM"},
      {"measurement": "TGI", "setting": "A498 renal", "value": "> 100", "unit": "µM"},
      {"measurement": "TGI", "setting": "SK-MEL-5 melanoma", "value": "> 100", "unit": "µM"},
      {"measurement": "TGI", "setting": "SF-539 CNS", "value": "> 100", "unit": "µM"},
      {"measurement": "TGI", "setting": "NCI-H460 lung", "value": "> 100", "unit": "µM"},
      {"measurement": "TGI", "setting": "K-562 leukemia", "value": 70.6, "unit": "µM"},
      {"measurement": "TGI", "setting": "M14 melanoma", "value": "> 100", "unit": "µM"},
      {"measurement": "TGI", "setting": "786-0 renal", "value": "> 100", "unit": "µM"},
      {"measurement": "TGI", "setting": "HCT-15 colon", "value": "> 100", "unit": "µM"},
      {"measurement": "TGI", "setting": "MDA-MB-435", "value": "> 100", "unit": "µM"},
      {"measurement": "TGI", "setting": "SF-295 CNS", "value": "> 100", "unit": "µM"},
      {"measurement": "TGI", "setting": "SF-268 CNS", "value": "> 100", "unit": "µM"},
      {"measurement": "TGI", "setting": "RXF 393 renal", "value": "> 100", "unit": "µM"},
      {"measurement": "TGI", "setting": "IGROV1 ovarian", "value": "> 100", "unit": "µM"},
      {"measurement": "TGI", "setting": "DU-145 prostate", "value": "> 100", "unit": "µM"},
      {"measurement": "TGI", "setting": "CAKI-1 renal", "value": "> 100", "unit": "µM"},
      {"measurement": "TGI", "setting": "MCF7 breast", "value": "> 100", "unit": "µM"},
      {"measurement": "TGI", "setting": "LOX IMVI melanoma", "value": "> 100", "unit": "µM"}
    ]}
  ]
}
